Source: article PMC5429621 (Scientific Reports, 2017)
Positions count from the first letter of the chain named.

How the values were obtained:
[1] = biological target: T1, hP2X7-2Nβ receptor (Homo sapiens, UniProt Q99572, I21V/M24R/N16P/N25R/Q22R/R20V/S23N/T19I/Y26L); assay: two-electrode voltage clamp, Xenopus oocytes; assay type: cell-based; details: P2X7-2Nβ
T1 construct: expressed in transfected cells; host or cells: Xenopus laevis oocytes (cRNA injected)
T1 sequence (Q99572 1-595 N16P/T19I/R20V/I21V/Q22R/S23N/M24R/N25R/Y26L): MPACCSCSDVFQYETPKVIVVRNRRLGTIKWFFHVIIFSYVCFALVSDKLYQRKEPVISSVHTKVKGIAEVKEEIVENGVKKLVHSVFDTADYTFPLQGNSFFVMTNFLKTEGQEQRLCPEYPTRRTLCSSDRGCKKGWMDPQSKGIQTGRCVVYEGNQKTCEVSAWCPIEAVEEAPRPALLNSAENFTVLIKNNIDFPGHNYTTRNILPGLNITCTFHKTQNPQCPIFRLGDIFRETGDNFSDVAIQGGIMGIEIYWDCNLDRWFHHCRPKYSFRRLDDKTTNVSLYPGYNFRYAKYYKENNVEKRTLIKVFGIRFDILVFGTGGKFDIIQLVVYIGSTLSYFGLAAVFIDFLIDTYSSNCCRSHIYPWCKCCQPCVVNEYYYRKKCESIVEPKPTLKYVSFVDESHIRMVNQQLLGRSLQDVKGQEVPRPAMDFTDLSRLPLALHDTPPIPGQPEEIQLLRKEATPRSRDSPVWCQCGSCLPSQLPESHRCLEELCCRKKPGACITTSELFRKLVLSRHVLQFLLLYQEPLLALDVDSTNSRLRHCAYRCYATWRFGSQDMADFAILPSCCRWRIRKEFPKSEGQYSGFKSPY
Description: (§1) P2XR constructs were transcribed to produce sense-strand cRNA (mMessage mMachine, Ambion, Austin, TX). Manually defoliculated stage V Xenopus laevis oocytes were injected with 50 nl (50 ng) of cRNA using an Inject + Matic microinjector (J.A. Gaby, InjectMatic, Geneva, Switzerland) and stored at 16 °C in ND96 buffer (in mM, NaCl 96, KCl 2, CaCl2 1.8, MgCl2 1, sodium pyruvate 5, HEPES 5 (pH 7.6) supplemented with 50 µg/ml gentamycin and 50 µg/ml tetracycline). For electrophysiological recordings (3–7 days post-injection) oocytes were bathed in divalent free ND96 buffer (in mM, NaCl 96, KCl 2, sodium pyruvate 5, HEPES 5 and 0.1 flufenamic acid, pH 7.6).
(§2) ATP (sodium salt, Sigma) was applied via a U-tube perfusion system for 3 s at 3–5 minute intervals to allow reproducible responses to be recorded. […] To standardize for any change in ATP sensitivity at mutant receptors antagonists were co-applied with an EC90 concentration of ATP.
(§3) Concentration response curves were normalized to the maximal response and fitted with the Hill equation (variable slope) with GraphPad Prism 6 (Graphpad software, San Diego, CA). […] Individual concentration response curves were generated for individual experiments and statistical analysis was carried out on the data generated. In the figures the inhibition curves are fitted to the mean normalized data. Any significant differences were calculated by one-way analysis of variance, followed by Bonferroni’s test (using GraphPad Prism 6). Data are shown as mean ± SEM.

[2] = biological target: T2, hP2X7-2Nβ K297G (Homo sapiens, UniProt Q99572, I21V/K297G/M24R/N16P/N25R/Q22R/R20V/S23N/T19I/Y26L); assay: two-electrode voltage clamp, Xenopus oocytes; assay type: cell-based; details: relative to P2X7-2Nβ
T2 construct: expressed in transfected cells; host or cells: Xenopus laevis oocytes (cRNA injection)
T2 sequence (Q99572 1-595 N16P/T19I/R20V/I21V/Q22R/S23N/M24R/N25R/Y26L/K297G): T1 sequence (Q99572 1-595 N16P/T19I/R20V/I21V/Q22R/S23N/M24R/N25R/Y26L) with K297G
Text: (§4) The hP2X1R was a gift from Dr Lin-Hua Jiang (University of Leeds, UK) and the hP2X1R cDNA has been described previously. Chimeras were generated by megaprimer-mediated domain swapping. In addition to chimeras, point mutations, deletions and insertions were made using the QuikChange (Stratagene) or Q5 (New England Bioscience) mutagenesis kits. The production of the correct mutations and absence of coding errors was verified by DNA sequencing (Automated ABI Sequencing Service, University of Leicester, UK).
as §1, §2, §3

[3] = biological target: T3, hP2X7-2Nβ/P2X1 chimera 279–285 (Homo sapiens, UniProt Q99572, DEL279-281/I21V/M24R/N16P/N25R/N284E/Q22R/R20V/S23N/T19I/T282Y/T283E/V285K/Y26L); assay: two-electrode voltage clamp, Xenopus oocytes; assay type: cell-based; details: 279–285 chimera; relative to P2X7-2Nβ
T3 construct: expressed in transfected cells; host or cells: Xenopus laevis oocytes (cRNA injected)
T3 sequence (Q99572 with tags, fused parts or gaps N16P/T19I/R20V/I21V/Q22R/S23N/M24R/N25R/Y26L/DEL279-281/T282Y/T283E/N284E/V285K): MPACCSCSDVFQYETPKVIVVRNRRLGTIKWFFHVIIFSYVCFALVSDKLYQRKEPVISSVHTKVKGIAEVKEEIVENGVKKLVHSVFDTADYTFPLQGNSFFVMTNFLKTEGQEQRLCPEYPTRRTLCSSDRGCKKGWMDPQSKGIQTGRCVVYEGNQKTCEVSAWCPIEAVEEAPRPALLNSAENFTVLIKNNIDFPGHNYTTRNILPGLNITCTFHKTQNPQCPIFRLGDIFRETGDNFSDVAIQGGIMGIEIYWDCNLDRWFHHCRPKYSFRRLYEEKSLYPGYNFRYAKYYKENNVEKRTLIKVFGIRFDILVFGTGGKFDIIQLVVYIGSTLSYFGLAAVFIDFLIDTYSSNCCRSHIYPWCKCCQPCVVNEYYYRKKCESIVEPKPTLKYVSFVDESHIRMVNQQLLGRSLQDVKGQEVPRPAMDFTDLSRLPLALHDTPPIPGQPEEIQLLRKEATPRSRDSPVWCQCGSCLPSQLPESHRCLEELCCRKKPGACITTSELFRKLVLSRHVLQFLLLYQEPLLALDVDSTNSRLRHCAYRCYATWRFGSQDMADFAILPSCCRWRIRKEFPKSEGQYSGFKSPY
Text: as §4, §1, §2, §3

[4] = biological target: P2X7 receptor (P2X7R); details: read-out: ATP EC50, physiological concentrations of calcium and magnesium; cited from earlier work

Compound | Hill slope of AZ10606120 inhibition ([1]; EC90 ATP) | % Inhibition with 30 nm AZ10606120 ([1]; response to EC90 ATP) | increase in AZ10606120 sensitivity [2] [fold] | Peak amplitude ([1]; maximal ATP) [μA] | increase in ATP sensitivity [3] | EC50 [4] [µM]
Cl.Cl.O=C(CC12CC3CC(CC(C3)C1)C2)Nc1cccc2nc(NCCNCCO)ccc12 [AZ10606120, N-[2-[[2-[(2-Hydroxyethyl)amino]ethyl]amino]-5-quinolinyl]-2-tricyclo[3.3.1.13,7]dec-1-ylacetamide dihydrochloride] | 1.7 ± 0.24 | ~ 70% | > 100 |  |  | 
Nc1ncnc2c1ncn2[C@@H]1O[C@H](COP(=O)(O)OP(=O)(O)OP(=O)(O)O)[C@@H](O)[C@H]1O [ATP] |  |  |  | 2.69 ± 0.19 | ~ 10 fold | 300 to 1000
